Measured values published in patent US20040071707A1, “Modulation of cell growth” (priority 2000, published 2004).

Test system: HUVEC
Test: In vitro endothelial cell proliferation assay
Type: cell-based, Human
Details: for effect on anti-kringle 2 (7VPA) induced HUVEC proliferation: HUVEC stimulated with 700 nM (or 1400 nM) 7VPA, simultaneous addition
Experimental: Human umbilical vein endothelial cells (HUVEC) were purchased from Clonetics or isolated from umbilical vein cords by mild collagenase treatment as described and cultured in M199 with Earle's salts (Sigma) with 20% heat inactivated fetal bovine serum (Sigma), 100 IU/mL penicillin 100 μg/mL streptomycin (Gibco), 250 ng/mL fungizone (Gibco), 2 mM glutamine (Gibco), 5 IU/mL heparin (Sigma) and 50 μg/mL ECGS (Technoclone, Vienna, Austria). Human vascular smooth muscle cells (HVSMC) were isolated as described.
3×10^3 cells were plated in 96-well plates and allowed to attach overnight. Growth was arrested by incubation with 100 μL reduced growth medium (M199 with 2% FBS) for 24 h. Thereafter anti-tPA antibodies and other reagents were added to wells. K2P (Reteplase), anti-kringle 2 (7VPA) and anti-finger/EGF antibodies (3VPA and 6VPA) were a gift from Technoclone, Vienna, Austria. Anti-kringle 1 (PAM-2), anti-kringle 2 (ESP1) and anti-protease (374B and ESP2) antibodies were purchased from American Diagnostica, Alpha Labs, UK. D-mannitol and LY294002 were obtained from Sigma. VEGF121 and bFGF were purchased from R&D Systems Inc., UK. Recombinant single chain tPA (rsctPA) was obtained from Boehringher Ingelheim. The mutant alatPA was kindly provided by Prof. Roger Lijnen (Center for Molecular and Vascular Biology, Leuven, Belgium). Aprotinin was purchased from Boehringer Mannheim. The tPA peptides (tPA I and tPA II) corresponding to residues 7-17 and 15-26 respectively were synthesized by the Clinical Sciences Centre peptide synthesis facility at Hammersmith and the ICRF peptide unit. Rp-cAMPS and Lavendustin A were obtained from Calbiochem, UK. After 4 days of incubation cell number was quantified colorimetrically by the addition of 20 μL CellTiter 96 AQueous One Solution Cell Proliferation Assay (Promega) at 492 nm and 620 nm reference filter. Background absorbance was determined with substrate alone and subtracted from all wells.
HUVEC were plated at 1×10^5 cells in 12 well plates overnight. Medium was replaced with reduced growth medium overnight followed by addition of anti-K2 antibody. Control wells contained M199 and 2% FBS alone. After 3 days incubation cells were counted in a hemocytometer.

O=C(O)c1cc(N(Cc2ccccc2O)Cc2cc(O)ccc2O)ccc1O [Lavendustin A, reference compound] was tested. Which “effect on anti-kringle 2 (7VPA) induced HUVEC proliferation” value (4 days) did it give?
Its value is “could inhibit”.

For Nc1ncnc2c1ncn2[C@@H]1O[C@@H]2CO[P@@](O)(=S)O[C@H]2[C@H]1O [Rp-cAMPS, reference compound], which “effect on anti-kringle 2 (7VPA) induced HUVEC proliferation” value (4 days) is on record?
The value was “could inhibit”.

With OC[C@@H](O)[C@@H](O)[C@H](O)[C@H](O)CO [mannitol, D-mannitol, reference compound] as the molecule, how does the “effect on basal HUVEC/EC growth (substance alone)” value (M199 with 2% FBS, 4 days, colorimetric) read?
Its value is “No effect”.

With angiostatin [reference compound] as the molecule, how does the “concentration giving 50% inhibition” value (HUVEC growth, bFGF 10 ng/mL (FIG. 4B)) read?
The value was 45 µg/mL.

For aprotinin [reference compound], which “effect on anti-kringle 2 (7VPA) induced HUVEC proliferation” value (4 days) is on record?
Its value is “could not block”.
